Data taken from ChEMBL document CHEMBL4616697, “Discovery of Adamantane Carboxamides as Ebola Virus Cell Entry and Glycoprotein Inhibitors” (ACS Med Chem Lett, 2020).
Converted amounts (≈) assume the structure as drawn. The source made the active and inactive calls. The calls are words filed in the database; no cut-off is given here.

Columns and labels:
Vero [1] = test: Inhibition of glycoprotein in VSV pseudotyped Ebolavirus infected in African green monkey Vero cells assessed as reduction in virus entry at 5 uM incubated for 24 hrs by luciferase reporter gene assay relative to control; assay type: cell-based
[2] = Inhibition of glycoprotein in VSV pseudotyped Ebolavirus infected in African green monkey Vero cells assessed as reduction in virus entry incubated for 24 hrs by luciferase reporter gene assay; assay type: cell-based
[3] = Kinetic aqueous solubility of compound in PBS at pH 6.4 to 7.5 measured after 2 hrs by spectrophotometry analysis; assay type: physicochemical; conditions: read-out: Kinetic_solubility
Vero [4] = test: Inhibition of glycoprotein in pseudotyped Vesicular stomatitis virus infected in African green monkey Vero cells assessed as reduction in virus entry at 5 uM incubated for 24 hrs by luciferase reporter gene assay; assay type: cell-based
[5] = Cytotoxicity against African green monkey Vero E6 cells assessed as reduction in cell viability incubated for 10 days by neutral red dye based spectrophotometry analysis; set-up: species or system Vero C1008; conditions: chlorocebus sabaeus
[6] = Metabolic stability in mouse liver microsomes assessed as parent compound remaining at 1 uM pretreated for 30 mins followed by NADPH addition and measured after 60 mins by LC-MS/MS analysis; assay type: ADME, Microsome; conditions: read-out: Stability
[7] = Metabolic stability in Cynomolgus monkey liver microsomes assessed as parent compound remaining at 1 uM pretreated for 30 mins followed by NADPH addition and measured after 60 mins by LC-MS/MS analysis; assay type: ADME, Macaca fascicularis, Microsome; conditions: read-out: Stability
[8] = Selectivity index, ratio of CC50 for African green monkey Vero E6 cells assessed as reduction in cell viability incubated for 10 days by neutral red dye based spectrophotometry analysis to EC90 for wild type Ebolavirus infected in African green monkey Vero E6 cells assessed as reduction in viral replication by virus yield reduction assay; assay type: toxicity, Vero C1008; conditions: read-out: Selectivity Index
[9] = Aqueous solubility of compound in PBS at pH 7.4 measured after 2 hrs by spectrophotometry analysis; assay type: physicochemical
[10] = Metabolic stability in human liver microsomes assessed as parent compound remaining at 1 uM pretreated for 30 mins followed by NADPH addition and measured after 60 mins by LC-MS/MS analysis; assay type: ADME, Microsome; conditions: for Stability: microsomes, 1 h, 1 µM; for remaining at 1 h, 1 µM: liver microsomes, read-out: Stability
Ebolavirus [11] = test: Antiviral activity against wild type Ebolavirus infected in African green monkey Vero E6 cells assessed as inhibition of viral entry compound treated with primary viral infected cells for 60 mins and after 3 days post-infection measured following 10 days of compound incubation with fresh cells infected with primary culture supernatants by virus yield reduction assay; assay type: functional; conditions: Orthoebolavirus, Vero C1008
Ebolavirus [12] = test: Antiviral activity against wild type Ebolavirus infected in African green monkey Vero cells assessed as reduction in plaque forming units incubated for 10 days by crystal violet staining based assay; assay type: functional, organism-based; conditions: Orthoebolavirus, 240 h
[13] = Metabolic stability in rat liver microsomes assessed as parent compound remaining at 1 uM pretreated for 30 mins followed by NADPH addition and measured after 60 mins by LC-MS/MS analysis; assay type: ADME, Microsome; conditions: read-out: Stability
[14] = Metabolic stability in guinea pig liver microsomes assessed as parent compound remaining at 1 uM pretreated for 30 mins followed by NADPH addition and measured after 60 mins by LC-MS/MS analysis; assay type: ADME, Cavia porcellus, Microsome; conditions: read-out: Stability
[15] = Metabolic stability in dog liver microsomes assessed as parent compound remaining at 1 uM pretreated for 30 mins followed by NADPH addition and measured after 60 mins by LC-MS/MS analysis; assay type: ADME, Canis lupus familiaris, Microsome; conditions: read-out: Stability
[16] = Selectivity index, ratio of CC50 for African green monkey Vero E6 cells assessed as reduction in cell viability incubated for 10 days by neutral red dye based spectrophotometry analysis to EC50 for wild type Ebolavirus infected in African green monkey Vero cells assessed as reduction in plaque forming units incubated for 10 days by crystal violet staining based assay; assay type: toxicity, Vero C1008; conditions: read-out: Ratio CC50/EC50

Compound	EC50 ([2]; Orthoebolavirus, Vero, 24 h)	solubility kinetic at 2 h [3]	also measured
O=C(NC1CCN(Cc2ccccc2)CC1)C12CC3CC(CC(C3)C1)C2	3900 nM	> 100 µM	inhibition (Vero [1]): > 50%; inhibition (Vero [4]): inactive
O=C(N1CCc2ccccc2C1)C12CC3CC(C1)CC(c1ccccc1)(C3)C2	2300 nM	> 100 µM	–
O=C(NC1CCNCC1)C12CC3CC1CC(c1ccccc1)(C3)C2 (stereo not given)	330 nM	> 100 µM	–
c1ccc(C23CC4CC(CC(CNC5CCNCC5)(C4)C2)C3)cc1	470 nM	> 100 µM	–
O=C(NC1CCNCC1)C12CC3CC(C1)CC(c1ccc(Cl)cc1)(C3)C2	190 nM	> 100 µM	–
C[C@@]12C[C@H]3C[C@@](C(=O)NC4CCNCC4)(C1)C[C@](c1ccccc1)(C3)C2	–	–	EC50 ([2]; vero): 240 nM
C[C@]12C[C@@H]3C[C@](C(=O)NC4CCNCC4)(C1)C[C@@](c1ccccc1)(C3)C2	–	–	CC50 at 240 h [5]: 71000 nM; remaining at 1 h, 1 µM [6]: 86%; remaining at 1 h, 1 µM [7]: 83%; selectivity ratio at 240 h [8]: 34; solubility at 2 h [9]: > 20 mg/mL; EC50 ([2]; vero): 28 nM; Stability [10]: 81%; EC90 (Ebolavirus [11]): 2100 nM
O=C(N1CCNCC1)C12CC3CC(C1)CC(c1ccccc1)(C3)C2	260 nM	> 100 µM	–
COc1ccc(C23CC4CC(CC(C(=O)NC5CCNCC5)(C4)C2)C3)cc1	380 nM	> 100 µM	–
CC12CC3(C)CC(C(=O)NC4CCNCC4)(C1)CC(c1ccccc1)(C2)C3	320 nM	> 100 µM	–
O=C(NC1CCN(Cc2ccccc2)CC1)C12CC3CC(C1)CC(c1ccccc1)(C3)C2	380 nM	> 100 µM	–
O=C(NC1CCNCC1)C12CC3CC(C1)CC(c1ccc(F)cc1)(C3)C2	310 nM	> 100 µM	–
O=C(NC12CC3CC(C1)CC(c1ccccc1)(C3)C2)C1CCNCC1	> 1000 nM	> 100 µM	–
O=C(NC1CCNCC1)C1C2CC3CC1CC(c1ccccc1)(C3)C2 (stereo not given)	180 nM	> 100 µM	–
CN1CCC(N(C)C(=O)C23CC4CC(C2)CC(c2ccccc2)(C4)C3)CC1	280 nM	> 100 µM	–
O=C(NC1CCNCC1)C12CC3CC(C1)CC(c1ccc(O)cc1)(C3)C2	1700 nM	> 100 µM	–
CN1CCC(NC(=O)C23CC4CC(C2)CC(c2ccccc2)(C4)C3)CC1	160 nM	> 100 µM	–
NC1CCN(C(=O)C23CC4CC(C2)CC(c2ccccc2)(C4)C3)CC1	120 nM	> 100 µM	–
O=C(CC12CC3CC(C1)CC(c1ccccc1)(C3)C2)NC1CCNCC1	490 nM	> 100 µM	–
O=C(NC1CCNCC1)NC12CC3CC(C1)CC(c1ccccc1)(C3)C2	> 1000 nM	> 100 µM	–
O=C(NC1CCNCC1)C12CC3CC(C1)CC(c1ccc([N+](=O)[O-])cc1)(C3)C2	> 3000 nM	> 100 µM	–
O=C(NC1CCNCC1)C12CC3CC(C1)CC(c1ccccc1)(C3)C2	72 nM	> 100 µM	–

Compound	EC50 ([2]; Orthoebolavirus, Vero, 24 h)	solubility kinetic at 2 h [3]	also measured
C[C@H]1C[C@H](NC(=O)C23CC4CC(C)(C2)CC(c2ccccc2)(C4)C3)CCN1 (mixture of isomers)	46 nM	> 100 µM	remaining at 1 h, 1 µM [10]: 75%
CC12CC3CC(C(=O)N[C@@H]4CCNC[C@H]4F)(C1)CC(c1ccccc1)(C3)C2 (mixture of isomers)	33 nM	> 100 µM	remaining at 1 h, 1 µM [10]: 60%
CCC12CC3CC(C(=O)N[C@H]4CC[C@H](N)CC4)(C1)CC(c1ccccc1)(C3)C2 (mixture of isomers)	–	> 100 µM	EC50 ([2]; vero): 10 nM; remaining at 1 h, 1 µM [10]: 71%
CC12CC3CC(C(=O)N4CCNCC4)(C1)CC(c1ccccc1)(C3)C2 (racemic)	130 nM	> 100 µM	remaining at 1 h, 1 µM [10]: 100%
CC12CC3CC(C(=O)NC4CCNCC4)(C1)CC(c1ccccc1)(C3)C2 (racemic)	–	> 100 µM	EC50 ([2]; vero): 43 nM; remaining at 1 h, 1 µM [10]: 75%
CC12CC3CC(C(=O)N4CCC(N)CC4)(C1)CC(c1ccccc1)(C3)C2 (racemic)	51 nM	> 100 µM	remaining at 1 h, 1 µM [10]: 81%
CCC12CC3CC(C(=O)NC4CCNCC4)(C1)CC(c1ccccc1)(C3)C2 (racemic)	20 nM	> 100 µM	remaining at 1 h, 1 µM [10]: 69%
CC12CC3CC(C(=O)NCC4CCNCC4)(C1)CC(c1ccccc1)(C3)C2 (racemic)	420 nM	> 100 µM	–
CC12CC3CC(C(=O)NC4CC5(CC(N)C5)C4)(C1)CC(c1ccccc1)(C3)C2 (racemic)	40 nM	> 100 µM	remaining at 1 h, 1 µM [10]: 79%
CC12CC3CC(C(=O)N[C@H]4CC[C@@H](N)CC4)(C1)CC(c1ccccc1)(C3)C2 (mixture of isomers)	110 nM	> 100 µM	remaining at 1 h, 1 µM [10]: 87%
CC12CC3CC(C(=O)N[C@H]4CC[C@H](N)CC4)(C1)CC(c1ccccc1)(C3)C2 (mixture of isomers)	–	> 100 µM	EC50 ([2]; vero): 31 nM; remaining at 1 h, 1 µM [10]: 92%
CC12CC3CC(C(=O)N[C@H]4CC[C@H](CN)CC4)(C1)CC(c1ccccc1)(C3)C2 (mixture of isomers)	–	> 100 µM	EC50 ([2]; vero): 30 nM; remaining at 1 h, 1 µM [10]: 75%
CC12CC3CC(C(=O)NC4CNC4)(C1)CC(c1ccccc1)(C3)C2 (racemic)	280 nM	> 100 µM	–
CC12CC3CC(C(=O)N[C@H]4[C@@H]5CNC[C@@H]54)(C1)CC(c1ccccc1)(C3)C2 (mixture of isomers)	120 nM	61 µM (≈ 21.4 µg/mL)	–
CC12CC3CC(C(=O)NCCN)(C1)CC(c1ccccc1)(C3)C2 (racemic)	250 nM	> 100 µM	–
CC12CC3CC(C(=O)N[C@H]4CC[C@H](N)CC4)(C1)CC(c1ccccc1)(C3)C2 (stereo in doubt; 38)	–	–	EC50 (Ebolavirus [12]): 240 nM; CC50 at 240 h [5]: 58000 nM; remaining at 1 h, 1 µM [13]: 63%; remaining at 1 h, 1 µM [14]: 100%; remaining at 1 h, 1 µM [6]: 74%; remaining at 1 h, 1 µM [7]: 89%; selectivity ratio at 240 h [8]: 77; solubility at 2 h [9]: > 20 mg/mL; EC50 ([2]; vero): 14 nM; remaining at 1 h, 1 µM [15]: 96%; Stability [10]: 100%; EC90 (Ebolavirus [11]): 750 nM
CC12CC3CC(C(=O)N[C@H]4CC[C@H](N)CC4)(C1)CC(c1ccccc1)(C3)C2 (stereo in doubt; 39)	–	–	EC50 ([2]; vero): 140 nM
CC12CC3CC(C(=O)N[C@H]4CC[C@H](CN)CC4)(C1)CC(c1ccccc1)(C3)C2 (stereo in doubt; 40)	–	–	EC50 (Ebolavirus [12]): 430 nM; CC50 at 240 h [5]: 22000 nM; remaining at 1 h, 1 µM [13]: 27%; remaining at 1 h, 1 µM [14]: 99%; remaining at 1 h, 1 µM [6]: 27%; remaining at 1 h, 1 µM [7]: 61%; selectivity ratio at 240 h [8]: 40; solubility at 2 h [9]: > 20 mg/mL; EC50 ([2]; vero): 10 nM; remaining at 1 h, 1 µM [15]: 85%; Stability [10]: 82%; EC90 (Ebolavirus [11]): 550 nM
CC12CC3CC(C(=O)N[C@H]4CC[C@H](CN)CC4)(C1)CC(c1ccccc1)(C3)C2 (stereo in doubt; 41)	–	–	EC50 ([2]; vero): 74 nM
CCC12CC3CC(C(=O)N[C@H]4CC[C@H](N)CC4)(C1)CC(c1ccccc1)(C3)C2 (stereo in doubt; 42)	–	–	EC50 (Ebolavirus [12]): 140 nM; CC50 at 240 h [5]: 31000 nM; remaining at 1 h, 1 µM [13]: 46%; remaining at 1 h, 1 µM [14]: 36%; remaining at 1 h, 1 µM [6]: 60%; remaining at 1 h, 1 µM [7]: 60%; solubility at 2 h [9]: > 20 mg/mL; selectivity ratio at 240 h [16]: 221; EC50 ([2]; vero): 12 nM; remaining at 1 h, 1 µM [15]: 77%; Stability [10]: 65%
CCC12CC3CC(C(=O)N[C@H]4CC[C@H](N)CC4)(C1)CC(c1ccccc1)(C3)C2 (stereo in doubt; 43)	–	–	EC50 ([2]; vero): 350 nM
